System: Bmi-1 protein
Test: Sandwich ELISA Assay (Bmi-1 protein level in HT-1080 cells after compound treatment)
Assay type: cell-based
Details: Table 1, Bmi-1 sandwich ELISA, read-out: ELISA EC50 value for Bmi-1 protein
Procedure, shortened: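 HT-1080 cells exposed to compounds for 40–48 h at 37 °C (0.5% DMSO final), then lysed. Bmi-1 in lysates measured by sandwich ELISA (mouse monoclonal capture, rabbit anti-Bmi-1 detection, HRP anti-rabbit, TMB), read at OD450 with OD570 reference against a recombinant Bmi-1 standard curve (0–8000 pg/mL).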

Row | EC50 [nM] | Structure (SMILES)
1 | 100 to 3000 | FC(F)(F)c1ccc(Nc2cncc(-c3cccc4[nH]ccc34)n2)cc1 [compound 407, 6-(1H-indol-4-yl)-N-[4-(trifluoromethyl)phenyl]pyrazin-2-amine]
2 | 10 to 100 | Cc1cc(Nc2cncc(-n3c(C)nc4ccccc43)n2)ccc1C(F)(F)F [compound 408, 6-(2-methyl-1H-benzimidazol-1-yl)-N-[3-methyl-4-(trifluoromethyl)phenyl]pyrazin-2-amine]
3 | 1 to 10 | COC1CCc2nc(C)c(-c3cncc(Nc4ccc(C(F)(F)F)cc4)n3)n2C1 (stereo not shown) [compound 409, 6-(6-methoxy-2-methyl-5,6,7,8-tetrahydroimidazo[1,2-a]pyridin-3-yl)-N-[4-(trifluoromethyl)phenyl]pyrazin-2-amine]
4 | 10 to 100 | Fc1ccc2nc(C(F)(F)F)c(-c3cccc(Nc4ccc(C(F)(F)F)cc4)n3)n2c1 [compound 411, 6-[6-fluoro-2-(trifluoromethyl)imidazo[1,2-a]pyridin-3-yl]-N-[4-(trifluoromethyl)phenyl]pyridin-2-amine]
5 | 1 to 10 | Cc1nn(C)c(Cl)c1-c1cncc(Nc2ccc(C(F)(F)F)cc2)n1 [compound 412, 6-(5-chloro-1,3-dimethyl-1H-pyrazol-4-yl)-N-[4-(trifluoromethyl)phenyl]pyrazin-2-amine]
6 | 1 to 10 | Cc1nn(C)c(Cl)c1-c1cncc(Nc2ccc(OC(F)F)cc2)n1 [compound 413, 6-(5-chloro-1,3-dimethyl-1H-pyrazol-4-yl)-N-[4-(difluoromethoxy)phenyl]pyrazin-2-amine]
7 | 10 to 100 | Cc1nn(C)c(Cl)c1-c1cncc(Nc2ccc(OC(F)(F)F)cc2)n1 [compound 414, 6-(5-chloro-1,3-dimethyl-1H-pyrazol-4-yl)-N-[4-(trifluoromethoxy)phenyl]pyrazin-2-amine]
8 | 10 to 100 | Cc1nn(C)c(Cl)c1-c1cncc(Nc2ccc(OC(F)F)c(F)c2)n1 [compound 415, 6-(5-chloro-1,3-dimethyl-1H-pyrazol-4-yl)-N-[4-(difluoromethoxy)-3-fluorophenyl]pyrazin-2-amine]
9 | 10 to 100 | Cn1nc2ccc(F)cc2c1-c1cncc(Nc2ccc(C(F)(F)F)cc2)n1 [compound 416, 6-(5-fluoro-2-methyl-2H-indazol-3-yl)-N-[4-(trifluoromethyl)phenyl]pyrazin-2-amine]
10 | 10 to 100 | Cc1nc2c(F)cc(F)cc2n1-c1cncc(Nc2ccc(C(F)(F)F)cc2)n1 [compound 417, 6-(4,6-difluoro-2-methyl-1H-benzimidazol-1-yl)-N-[4-(trifluoromethyl)phenyl]pyrazin-2-amine]
11 | 10 to 100 | ONc1cc(Nc2ccc(C(F)(F)F)cc2)nc(-c2c(C(F)(F)F)nc3ccc(F)cn23)c1 [compound 418, 6-[6-fluoro-2-(trifluoromethyl)imidazo[1,2-a]pyridin-3-yl]-N^4-hydroxy-N^2-[4-(trifluoromethyl)phenyl]pyridine-2,4-diamine]
12 | 1 to 10 | Cc1nc2ncc(Cl)cc2n1-c1cc(C#N)cc(Nc2ccc(C(F)(F)F)cc2)n1 [compound 419, 2-(6-chloro-2-methyl-1H-imidazo[4,5-b]pyridin-1-yl)-6-{[4-(trifluoromethyl)phenyl]amino}pyridine-4-carbonitrile]
13 | 1 to 10 | Cc1nc2ccccc2n1-c1cncc(Nc2nc3ccccc3s2)n1 [compound 420, N-[6-(2-methyl-1H-benzimidazol-1-yl)pyrazin-2-yl]-1,3-benzothiazol-2-amine]
14 | 10 to 100 | FC(F)(F)c1ccc(Nc2cncc(-c3c(C4CC4)nc4ncccn34)n2)cc1 [compound 422, 6-(2-cyclopropylimidazo[1,2-a]pyrimidin-3-yl)-N-[4-(trifluoromethyl)phenyl]pyrazin-2-amine]
15 | 10 to 100 | Cc1nc2cc(F)c(F)cc2n1-c1cncc(Nc2ccc(N3CCOCC3)nc2)n1 [compound 423, 6-(5,6-difluoro-2-methyl-1H-benzimidazol-1-yl)-N-[6-(morpholin-4-yl)pyridin-3-yl]pyrazin-2-amine]
16 | 100 to 3000 | Cc1nc2ccccc2n1-c1cncc(NC2Cc3ccccc3C2)n1 [compound 424, N-(2,3-dihydro-1H-inden-2-yl)-6-(2-methyl-1H-benzimidazol-1-yl)pyrazin-2-amine]
17 | 10 to 100 | Cc1nc2cc(F)c(F)cc2n1-c1cncc(Nc2ccc(NCCO)nc2)n1 [compound 425, 2-[(5-{[6-(5,6-difluoro-2-methyl-1H-benzimidazol-1-yl)pyrazin-2-yl]amino}pyridin-2-yl)amino]ethanol]
18 | 100 to 3000 | Cc1nc2cc(F)ccc2n1-c1cncc(Nc2ccc(Cl)nc2)n1 [compound 426, N-(6-chloropyridin-3-yl)-6-(5-fluoro-2-methyl-1H-benzimidazol-1-yl)pyrazin-2-amine]
19 | 10 to 100 | Cc1nc2ccc(F)cc2n1-c1cncc(Nc2ccc(Cl)nc2)n1 [compound 427, N-(6-chloropyridin-3-yl)-6-(6-fluoro-2-methyl-1H-benzimidazol-1-yl)pyrazin-2-amine]
20 | 1 to 10 | Cc1nc2ncc(Cl)cc2n1-c1cc(C#N)cc(Nc2ccc(OC(F)F)cc2)n1 [compound 428, 2-(6-chloro-2-methyl-1H-imidazo[4,5-b]pyridin-1-yl)-6-{[4-(difluoromethoxy)phenyl]amino}pyridine-4-carbonitrile]
21 | 1 to 10 | Cc1nc2ncc(Cl)cc2n1-c1cc(C#N)cc(Nc2ccc(OC(F)F)c(F)c2)n1 [compound 429, 2-(6-chloro-2-methyl-1H-imidazo[4,5-b]pyridin-1-yl)-6-{[4-(difluoromethoxy)-3-fluorophenyl]amino}pyridine-4-carbonitrile]
22 | 100 to 3000 | Cc1nc2cc(F)c(F)cc2n1-c1cncc(Nc2ccc(NCCN(C)C)nc2)n1 [compound 430, N^5-[6-(5,6-difluoro-2-methyl-1H-benzimidazol-1-yl)pyrazin-2-yl]-N^2-[2-(dimethylamino)ethyl]pyridine-2,5-diamine]
23 | 10 to 100 | Cc1nc2cc(F)ccc2n1-c1cncc(Nc2ccc(C(F)(F)F)nc2)n1 [compound 431, 6-(5-fluoro-2-methyl-1H-benzimidazol-1-yl)-N-[6-(trifluoromethyl)pyridin-3-yl]pyrazin-2-amine]
24 | 10 to 100 | Cc1nc2ccc(F)cc2n1-c1cncc(Nc2ccc(C(F)(F)F)nc2)n1 [compound 432, 6-(6-fluoro-2-methyl-1H-benzimidazol-1-yl)-N-[6-(trifluoromethyl)pyridin-3-yl]pyrazin-2-amine]
25 | 100 to 3000 | Cc1nc2ccccc2n1-c1cncc(Nc2ccc(B3OC(C)(C)C(C)(C)O3)cc2)n1 [compound 433, 6-(2-methyl-1H-benzimidazol-1-yl)-N-[4-(4,4,5,5-tetramethyl-1,3,2-dioxaborolan-2-yl)phenyl]pyrazin-2-amine]
26 | 10 to 100 | Cc1nc2ccccc2n1-c1cncc(Nc2ccc(B(O)O)cc2)n1 [compound 434, (4-{[6-(2-methyl-1H-benzimidazol-1-yl)pyrazin-2-yl]amino}phenyl)boronic acid]
27 | 10 to 100 | Cc1nc2ncc(F)cn2c1-c1cc(C#N)cc(Nc2ccc(OC(F)(F)F)cc2)n1 [compound 438, 2-(6-fluoro-2-methylimidazo[1,2-a]pyrimidin-3-yl)-6-{[4-(trifluoromethoxy)phenyl]amino}pyridine-4-carbonitrile]
28 | 100 to 3000 | Cc1nc2ccccc2n1-c1cncc(Nc2nc3ccc(C(F)(F)F)cc3s2)n1 [compound 440, N-[6-(2-methyl-1H-benzimidazol-1-yl)pyrazin-2-yl]-6-(trifluoromethyl)-1,3-benzothiazol-2-amine]
